Assay results: US12435104B2, “Cyclic dinucleotides as sting agonists” (BEIGENE, LTD., priority 2019, dated 2025)
Structures can show the parent of a compound that is named as a salt.

Assays:
[1] = system: hSTING-R232 in THP1-Dual KI-hSTING-R232 Cells; assay: STING cellular assay in THP1-Dual KI-hSTING-R232 cells (Lucia luciferase reporter); settings: Homo sapiens, THP1-Dual KI-hSTING-R232, 24 h, read-out: Cellular activity EC50 in THP1-Dual KI-hSTING-R232 Cells
[2] = system: STING in THP1-Dual Cells; assay: STING cellular assay in THP1-Dual cells (ISG54-Lucia luciferase reporter); settings: Homo sapiens, 24 h, read-out: Cellular activity EC50 in THP1-Dual Cells

Row | Structure (SMILES) | EC50 [1] [µM] | EC50 [2] [µM]
1 | Nc1nc2c(ncn2[C@@H]2O[C@@H]3COP(=O)(O)O[C@H]4[C@H](n5cnc6c(N)ncnc65)O[C@H](COP(=O)(O)O[C@H]3[C@H]2O)[C@]42CC2(F)F)c(=O)[nH]1 [Example 1, 2-amino-9-((1R,5′S,7′R,8′R,12a′R,14′R,15′R,15a′S)-7′-(6-amino-9H-purin-9-yl)-2,2-difluoro-2′,10′,15′-trihydroxy-2′,10′-dioxidooctahydro-12′H-spiro[cyclopropane-1,16′-[5,8]methanofuro[3,2-1][1,3,6,9,11]pentaoxa[2,10]diphosphacyclotetradecin]-14′-yl)-1,9-dihydro-6H-purin-6-one triethylamine salt] | 3.21 | 2.69
2 | Nc1nc2c(ncn2[C@@H]2O[C@@H]3CO[P@@](O)(=S)O[C@H]4[C@H](n5cnc6c(N)ncnc65)O[C@H](COP(O)(=S)O[C@H]3[C@H]2F)[C@]42CC2(F)F)c(=O)[nH]1 (stereo partly drawn) [Example 2, 2-amino-9-((1R,5′S,7′R,8′R,10′R,12a′R,14′R,15′R,15a′R)-7′-(6-amino-9H-purin-9-yl)-2,2,15′-trifluoro-2′,10′-dihydroxy-2′,10′-disulfidooctahydro-12′H-spiro[cyclopropane-1,16′-[5,8]methanofuro[3,2-1][1,3,6,9,11]pentaoxa[2,10]diphosphacyclotetradecin]-14′-yl)-1,9-dihydro-6H-purin-6-one] | 2.32 | 1.76
